From PubChem BioAssay (NCI)
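A five-concentration, 48-hour dose response in 96-well plates underlies each endpoint, interpolated linearly between surrounding concentrations. GI50 = concentration required for 50% inhibition of growth. TGI: concentration producing complete growth inhibition.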

Assays:
Assay in all cases: NCI tumour cell line growth inhibition, 48 h
HS 578T breast = system: HS 578T breast
MDA-MB-435 = system: MDA-MB-435
NCI-H522 lung = system: NCI-H522 lung
UACC-62 melanoma = system: UACC-62 melanoma
UACC-257 melanoma = system: UACC-257 melanoma
NCI-H460 lung = system: NCI-H460 lung
MDA-N = system: MDA-N
K-562 leukemia = system: K-562 leukemia
SF-268 CNS = system: SF-268 CNS
SNB-19 CNS = system: SNB-19 CNS
OVCAR-3 ovarian = system: OVCAR-3 ovarian
EKVX NSCLC = system: EKVX NSCLC
MOLT-4 leukemia = system: MOLT-4 leukemia
SK-MEL-2 melanoma = system: SK-MEL-2 melanoma
HCT-116 colon = system: HCT-116 colon
OVCAR-4 ovarian = system: OVCAR-4 ovarian
ACHN renal = system: ACHN renal
786-0 renal = system: 786-0 renal
RXF 393 renal = system: RXF 393 renal
T-47D breast = system: T-47D breast
SN12C renal = system: SN12C renal
BT-549 breast = system: BT-549 breast
HOP-92 NSCLC = system: HOP-92 NSCLC
A498 renal = system: A498 renal
IGROV1 ovarian = system: IGROV1 ovarian
NCI-H23 lung = system: NCI-H23 lung
NCI-H226 lung = system: NCI-H226 lung
A549 NSCLC = system: A549 NSCLC
SF-539 CNS = system: SF-539 CNS
NCI/ADR-RES ovarian = system: NCI/ADR-RES ovarian
HOP-62 NSCLC = system: HOP-62 NSCLC
HT29 colon = system: HT29 colon
CAKI-1 renal = system: CAKI-1 renal
RPMI-8226 leukemia = system: RPMI-8226 leukemia
M14 melanoma = system: M14 melanoma
PC-3 prostate = system: PC-3 prostate
MDA-MB-231 breast = system: MDA-MB-231 breast
MALME-3M melanoma = system: MALME-3M melanoma
U251 CNS = system: U251 CNS
MCF7 breast = system: MCF7 breast
TK-10 renal = system: TK-10 renal
LOX IMVI melanoma = system: LOX IMVI melanoma
SF-295 CNS = system: SF-295 CNS
HCT-15 colon = system: HCT-15 colon
SW-620 colon = system: SW-620 colon
HL-60(TB) leukemia = system: HL-60(TB) leukemia
COLO 205 colon = system: COLO 205 colon
DU-145 prostate = system: DU-145 prostate
KM12 colon = system: KM12 colon
UO-31 renal = system: UO-31 renal
OVCAR-5 ovarian = system: OVCAR-5 ovarian
SK-MEL-28 melanoma = system: SK-MEL-28 melanoma
SK-MEL-5 melanoma = system: SK-MEL-5 melanoma
SNB-75 CNS = system: SNB-75 CNS
OVCAR-8 ovarian = system: OVCAR-8 ovarian
HCC-2998 colon = system: HCC-2998 colon
SK-OV-3 ovarian = system: SK-OV-3 ovarian
SR leukemia = system: SR leukemia
CCRF-CEM leukemia = system: CCRF-CEM leukemia

C=C1C[C@@H]2CC[C@@]34C[C@H]5O[C@H]6[C@@H](O3)[C@H]3O[C@H](CC[C@@H]3O[C@H]6[C@H]5O4)CC(=O)C[C@@H]3[C@@H](OC)[C@@H](C[C@H](O)CN)O[C@H]3C[C@H]3O[C@@H](CC[C@@H]1O2)C[C@@H](C)C3=C
TGI (HS 578T breast): > 0.187 µM
TGI (MDA-MB-435): 0.000274 µM
TGI (NCI-H522 lung): 0.0412 µM
TGI (UACC-62 melanoma): > 1 µM
TGI (UACC-257 melanoma): > 1 µM
TGI (NCI-H460 lung): 0.161 µM
GI50 (MDA-N): 0.0001 µM
TGI (MDA-N): 0.000354 µM
TGI (K-562 leukemia): > 1 µM
TGI (SF-268 CNS): > 1 µM
GI50 (SNB-19 CNS): 0.00127 µM
TGI (SNB-19 CNS): > 1 µM
GI50 (OVCAR-3 ovarian): 0.0002 µM
TGI (OVCAR-3 ovarian): 0.000836 µM
TGI (EKVX NSCLC): 0.273 µM
TGI (MOLT-4 leukemia): 0.0479 µM
TGI (SK-MEL-2 melanoma): > 0.167 µM
TGI (HCT-116 colon): 0.101 µM
TGI (OVCAR-4 ovarian): > 1 µM
TGI (ACHN renal): > 1 µM
TGI (786-0 renal): > 1 µM
GI50 (RXF 393 renal): 0.00255 µM
TGI (T-47D breast): > 1 µM
TGI (SN12C renal): > 1 µM
TGI (BT-549 breast): > 1 µM
TGI (HOP-92 NSCLC): > 1 µM
TGI (A498 renal): 0.245 µM
TGI (IGROV1 ovarian): > 0.253 µM
TGI (NCI-H23 lung): 0.173 µM
TGI (NCI-H226 lung): 0.00433 µM
TGI (A549 NSCLC): > 1 µM
TGI (SF-539 CNS): 0.00215 µM
TGI (NCI/ADR-RES ovarian): > 1 µM
TGI (HOP-62 NSCLC): > 1 µM
TGI (HT29 colon): 0.0133 µM
TGI (CAKI-1 renal): 0.366 µM
TGI (RPMI-8226 leukemia): 0.0344 µM
TGI (M14 melanoma): 0.0307 µM
TGI (PC-3 prostate): > 0.12 µM
TGI (MDA-MB-231 breast): 0.087 µM
TGI (MALME-3M melanoma): > 1 µM
TGI (U251 CNS): > 0.199 µM
TGI (MCF7 breast): > 1 µM
TGI (TK-10 renal): > 1 µM
TGI (LOX IMVI melanoma): > 0.533 µM
TGI (SF-295 CNS): 0.251 µM
TGI (HCT-15 colon): > 0.76 µM
TGI (SW-620 colon): > 1 µM
GI50 (HL-60(TB) leukemia): 0.000307 µM
TGI (HL-60(TB) leukemia): 0.00466 µM
TGI (COLO 205 colon): 0.00193 µM
TGI (DU-145 prostate): 0.0241 µM
TGI (KM12 colon): 0.0104 µM
TGI (UO-31 renal): > 1 µM
GI50 (OVCAR-5 ovarian): 0.00251 µM
TGI (OVCAR-5 ovarian): > 1 µM
TGI (SK-MEL-28 melanoma): > 1 µM
TGI (SK-MEL-5 melanoma): 0.043 µM
GI50 (SNB-75 CNS): 0.00046 µM
TGI (SNB-75 CNS): > 1 µM
TGI (OVCAR-8 ovarian): 0.167 µM
TGI (HCC-2998 colon): 0.096 µM
TGI (SK-OV-3 ovarian): 0.286 µM

N#Cc1ccc(-c2nc(C#N)c(N)o2)cc1
TGI (HS 578T breast): > 10 µM
TGI (MDA-MB-435): > 10 µM
TGI (NCI-H522 lung): > 10 µM
TGI (UACC-62 melanoma): > 10 µM
TGI (UACC-257 melanoma): > 10 µM
TGI (NCI-H460 lung): > 10 µM
TGI (MDA-N): > 10 µM
TGI (K-562 leukemia): > 10 µM
TGI (SF-268 CNS): > 10 µM
TGI (SNB-19 CNS): > 10 µM
TGI (EKVX NSCLC): > 10 µM
TGI (MOLT-4 leukemia): > 10 µM
TGI (HCT-116 colon): > 10 µM
TGI (OVCAR-4 ovarian): > 10 µM
TGI (ACHN renal): > 10 µM
TGI (786-0 renal): > 10 µM
TGI (RXF 393 renal): > 10 µM
TGI (T-47D breast): > 10 µM
TGI (SN12C renal): > 10 µM
TGI (BT-549 breast): > 10 µM
TGI (HOP-92 NSCLC): > 10 µM
TGI (IGROV1 ovarian): > 10 µM
TGI (NCI-H23 lung): > 10 µM
TGI (NCI-H226 lung): > 10 µM
TGI (A549 NSCLC): > 10 µM
TGI (SF-539 CNS): > 10 µM
TGI (NCI/ADR-RES ovarian): > 10 µM
TGI (HOP-62 NSCLC): > 10 µM
TGI (HT29 colon): > 10 µM
TGI (CAKI-1 renal): > 10 µM
TGI (RPMI-8226 leukemia): > 10 µM
TGI (SR leukemia): > 10 µM
TGI (M14 melanoma): > 10 µM
TGI (PC-3 prostate): > 10 µM
TGI (MDA-MB-231 breast): > 10 µM
TGI (MALME-3M melanoma): > 10 µM
TGI (MCF7 breast): > 10 µM
TGI (TK-10 renal): > 10 µM
TGI (LOX IMVI melanoma): > 10 µM
TGI (SF-295 CNS): > 10 µM
TGI (HCT-15 colon): > 10 µM
TGI (SW-620 colon): > 10 µM
TGI (CCRF-CEM leukemia): > 10 µM
TGI (HL-60(TB) leukemia): > 10 µM
TGI (COLO 205 colon): > 10 µM
TGI (DU-145 prostate): > 10 µM
TGI (KM12 colon): > 10 µM
TGI (UO-31 renal): > 10 µM
TGI (SK-MEL-28 melanoma): > 10 µM
TGI (SK-MEL-5 melanoma): > 10 µM
TGI (SNB-75 CNS): > 10 µM
TGI (OVCAR-8 ovarian): > 10 µM
TGI (HCC-2998 colon): > 10 µM
TGI (SK-OV-3 ovarian): > 10 µM

CCCCCCCCCCCCOCCOCCOCCOCCOCCOCC(=O)NC(Cc1ccccc1)C(=O)Oc1ccc([N+](=O)[O-])cc1 (configuration not stated)
TGI (HS 578T breast): > 100 µM
TGI (MDA-MB-435): > 100 µM
TGI (NCI-H522 lung): > 100 µM
TGI (UACC-62 melanoma): 56.4 µM
TGI (UACC-257 melanoma): > 100 µM
TGI (NCI-H460 lung): > 100 µM
TGI (MDA-N): > 100 µM
TGI (K-562 leukemia): > 100 µM
TGI (SF-268 CNS): > 100 µM
TGI (SNB-19 CNS): > 100 µM
TGI (OVCAR-3 ovarian): 51.9 µM
TGI (EKVX NSCLC): > 100 µM
TGI (MOLT-4 leukemia): 74.8 µM
TGI (SK-MEL-2 melanoma): 47.9 µM
TGI (HCT-116 colon): > 100 µM
TGI (OVCAR-4 ovarian): > 100 µM
TGI (ACHN renal): > 100 µM
TGI (786-0 renal): > 100 µM
TGI (RXF 393 renal): > 100 µM
TGI (T-47D breast): > 100 µM
TGI (BT-549 breast): > 100 µM
TGI (HOP-92 NSCLC): > 100 µM
TGI (A498 renal): 75.6 µM
TGI (IGROV1 ovarian): > 100 µM
TGI (NCI-H23 lung): > 100 µM
TGI (NCI-H226 lung): > 100 µM
TGI (A549 NSCLC): > 100 µM
TGI (SF-539 CNS): > 100 µM
TGI (NCI/ADR-RES ovarian): > 100 µM
TGI (HOP-62 NSCLC): > 100 µM
TGI (HT29 colon): > 100 µM
TGI (CAKI-1 renal): > 100 µM
TGI (RPMI-8226 leukemia): > 100 µM
TGI (SR leukemia): 63.9 µM
TGI (M14 melanoma): > 100 µM
TGI (PC-3 prostate): > 100 µM
TGI (MDA-MB-231 breast): > 100 µM
TGI (MALME-3M melanoma): > 100 µM
TGI (U251 CNS): > 100 µM
TGI (MCF7 breast): > 100 µM
TGI (TK-10 renal): > 100 µM
TGI (LOX IMVI melanoma): > 100 µM
TGI (SF-295 CNS): > 100 µM
TGI (HCT-15 colon): > 100 µM
TGI (SW-620 colon): > 100 µM
TGI (CCRF-CEM leukemia): > 100 µM
TGI (HL-60(TB) leukemia): > 100 µM
TGI (COLO 205 colon): 35.9 µM
TGI (KM12 colon): > 100 µM
TGI (UO-31 renal): > 100 µM
TGI (OVCAR-5 ovarian): > 100 µM
TGI (SK-MEL-5 melanoma): > 100 µM
TGI (SNB-75 CNS): > 100 µM
TGI (OVCAR-8 ovarian): > 100 µM
TGI (SK-OV-3 ovarian): > 100 µM
